Measured values published in ChEMBL document CHEMBL4699526, “Flavonoids with Inhibitory Effects on NLRP3 Inflammasome Activation from Millettia velutina” (J Nat Prod, 2020).

Experiments:
[1] = In vivo inhibition of NLRP3 inflammasome activation in C57BL/6 mouse assessed as survival rate at 50 mg/kg, ip pretreated for 1 hr followed by LPS-treatment and measured every 12 hrs for 48 hrs relative to control; assay type: functional; conditions: C57BL/6, ip, time 49 hrs
THP-1 = assay: Cytotoxicity against LPS-primed human PMA-differentiated THP-1 cells 2.5 to 5 uM by CytoTox 96 Non-Radioactive assay; assay type: cell-based; conditions: dose 2.5-5 µM
[2] = In vivo inhibition of NLRP3 inflammasome activation in C57BL/6 mouse assessed as mortality rate at 50 mg/kg, ip pretreated for 1 hr followed by LPS-treatment and measured every 12 hrs for 48 hrs (reference value: 100%); assay type: functional; conditions: C57BL/6, ip, 61 h

COc1c(/C=C/C(=O)c2ccccc2)cc(OC)c2occc12
survival at 50 mg/kg [1]: 100% | Activity (THP-1): Non-Toxic | mortality at 50 mg/kg [2]: 24%
